# According to patent US12415815B2, “Pyrido[2,3-e]oxazine derivatives as agricultural chemicals” (GLOBACHEM NV, priority 2020, dated 2025):
# What was measured:
# Format in all cases: cell-based
# Zymoseptoria tritici = assay: Fungicidal activity screen in amended agar, 96 well plates, Zymoseptoria tritici; conditions: 1% potato dextrose agar, 10,000 spores/mL, 20, 2, 0.2 and 0.02 ppm, room temperature (18° C.), assessed after 7 days; for EC50: Zymoseptoria tritici, 168 h, read-out: Zymoseptoria (fungal growth vs DMSO controls, EC50 ranking)
# Procedure: (§1) Compounds were screened in 96 well plates with 10 compounds per plate. Each compound was screened using agar amended to 20, 2, 0.2 and 0.02 ppm of the test material. Proline at 50 and 10 ppm and 0.2% DMSO were used respectively as positive and negative controls. Each test concentration and standard were tested twice on a plate.
# (§2) Compounds were screened against the following three fungal pathogens—Botrytis cinerea, Alternaria alternata and Zymoseptoria tritici. The agar used in the test varied depending on the pathogen with Medium N used for B. cinerea and A. alternata and 1% potato dextrose agar for Z. tritici. For each pathogen sufficient spores were added to the appropriate agar to give 1,000 spores/mL agar of A. alternata, 5,000 spores/ml agar of B. cinerea and 10,000 spores/mL agar of Z. tritici.
# (§3) A ×10 stock solution in 2% DMSO was produced for each dose i.e. 200, 20, 2 and 0.2 ppm, and 10 μl of this added to the appropriate wells on the plate. An equivalent amount of 2% DMSO and Proline stock at 500 and 100 ppm were added for the controls. To each well, 90 μl of the appropriate agar spore suspension was added to give the final well concentrations outlined in the first paragraph.
# (§4) Plates were incubated at room temperature (18° C.) and assessed after: • a) 3 to 4 days A. alternata and B. cinerea • b) 7 days for Z. tritici
# (§5) The amount of fungal growth in each well was compared to the DMSO controls and scored according to the following key: • A—EC50<2 ppm • B—2≤EC50<20 • C—EC50≥20 • D—No activity detected at the highest dose tested • NT—Not tested
# Alternaria alternata = assay: Fungicidal activity screen in amended agar, 96 well plates, Alternaria alternata; conditions: Medium N agar, 1,000 spores/mL, 20, 2, 0.2 and 0.02 ppm, room temperature (18° C.), assessed after 3 to 4 days, read-out: Alternaria (fungal growth vs DMSO controls, EC50 ranking)
# Procedure: as §1, §2, §3, §4, §5
# Botrytis cinerea = assay: Fungicidal activity screen in amended agar, 96 well plates, Botrytis cinerea; conditions: Medium N agar, 5,000 spores/ml, 20, 2, 0.2 and 0.02 ppm, room temperature (18° C.), assessed after 3 to 4 days, read-out: Botrytis (fungal growth vs DMSO controls, EC50 ranking)
# Procedure: as §1, §2, §3, §4, §5
Molecule,"Zymoseptoria (fungal growth vs DMSO controls, EC50 ranking) (Zymoseptoria tritici)",EC50 (Alternaria alternata) [µg/mL],EC50 (Zymoseptoria tritici) [µg/mL],EC50 (Botrytis cinerea) [µg/mL]
"3-(7-chloro-6-(2-chlorophenoxy) benzo[d]thiazol-2-yl)-8-methoxy-2- thioxo-2,3-dihydro-4H-pyrido[2,3- e][1,3]oxazin-4-one [Example 35]",A (EC50<2 ppm),–,–,–
"COc1ccnc2c(=O)n(-c3nc4ccc(Oc5ccc(F)cc5Cl)cc4s3)c(=O)oc12 [Example 1, 3-(6-(2-Chloro-4-fluorophenoxy)benzo[d]thiazol-2-yl)-8-methoxy-2H-pyrido[2,3-e][1,3]oxazine-2,4(3H)-dione]",–,2 to 20,< 2,2 to 20
"COc1ccnc2c(=O)n(-c3nc4ccc(Oc5cncc(C(F)(F)F)c5)cc4s3)c(=O)oc12 [Example 2, 8-Methoxy-3-(6-((5-(trifluoromethyl)pyridin-3-yl)oxy)benzo[d]thiazol-2-yl)-2H-pyrido[2,3-e][1,3]oxazine-2,4(3H)-dione]",–,2 to 20,< 2,2 to 20
"COc1ccnc2c(=O)n(-c3nc4ccc(Oc5ccc(F)cc5)cc4s3)c(=O)oc12 [Example 3, 3-(6-(4-Fluorophenoxy)benzo[d]thiazol-2-yl)-8-methoxy-2H-pyrido[2,3-e][1,3]oxazine-2,4(3H)-dione]",–,2 to 20,< 2,2 to 20
"COc1ccnc2c(=O)n(-c3nc4ccc(Oc5ccccc5)cc4s3)c(=O)oc12 [Example 4, 8-Methoxy-3-(6-phenoxybenzo[d]thiazol-2-yl)-2H-pyrido[2,3-e][1,3]oxazine-2,4(3H)-dione]",–,2 to 20,< 2,2 to 20
"COc1ccnc2c(=O)n(-c3nc4ccc(Oc5ccccc5Cl)cc4s3)c(=O)oc12 [Example 5, 3-(6-(2-Chlorophenoxy)benzo[d]thiazol-2-yl)-8-methoxy-2H-pyrido[2,3-e][1,3]oxazine-2,4(3H)-dione]",–,2 to 20,< 2,2 to 20
"COc1ccnc2c(=O)n(-c3nc4ccc(Oc5ccc(F)cc5Cl)cc4s3)c(=S)oc12 [Example 6, 3-(6-(2-Chloro-4-fluorophenoxy)benzo[d]thiazol-2-yl)-8-methoxy-2-thioxo-2,3-dihydro-4H-pyrido[2,3-e][1,3]oxazin-4-one]",–,2 to 20,< 2,2 to 20
"COc1ccnc2c(=O)n(-c3nc4cc(-c5ccccc5Cl)c(Oc5ccc(F)cc5Cl)cc4s3)c(=S)oc12 [Example 12, 3-(6-(2-Chloro-4-fluorophenoxy)-5-(2-chlorophenyl)benzo[d]thiazol-2-yl)-8-methoxy-2-thioxo-2,3-dihydro-4H-pyrido[2,3-e][1,3]oxazin-4-one]",–,–,< 2,–
"COc1ccnc2c(=O)n(-c3nc4c(-c5ccccc5)cc(Oc5ccc(F)cc5Cl)cc4s3)c(=S)oc12 [Example 13, 3-(6-(2-Chloro-4-fluorophenoxy)-4-phenylbenzo[d]thiazol-2-yl)-8-methoxy-2-thioxo-2,3-dihydro-4H-pyrido[2,3-e][1,3]oxazin-4-one]",–,–,< 2,–
"COc1ccnc2c(=O)n(-c3nc4cnc(Oc5ccc(F)cc5Cl)nc4s3)c(=S)oc12 [Example 14, 3-(5-(2-Chloro-4-fluorophenoxy)thiazolo[5,4-d]pyrimidin-2-yl)-8-methoxy-2-thioxo-2,3-dihydro-4H-pyrido[2,3-e][1,3]oxazin-4-one]",–,–,< 2,–
"COc1ccnc2c(=O)n(-c3nc4ccc(C(=O)OC(C)C)cc4s3)c(=S)oc12 [Example 15, Isopropyl 2-(8-methoxy-4-oxo-2-thioxo-2H-pyrido[2,3-e][1,3]oxazin-3(4H)-yl)benzo[d]thiazole-6-carboxylate]",–,–,< 2,–
"COc1ccnc2c(=O)n(-c3nc4ccc(N(C)c5ccc(F)cc5Cl)cc4s3)c(=S)oc12 [Example 16, 3-(6-((2-Chloro-4-fluorophenyl)(methyl)amino)benzo[d]thiazol-2-yl)-8-methoxy-2-thioxo-2,3-dihydro-4H-pyrido[2,3-e][1,3]oxazin-4-one]",–,–,< 2,–
"COc1ccnc2c(=O)n(-c3nc4ccc(Oc5ccccc5Cl)cc4s3)c(=S)oc12 [Example 18, 3-(6-(2-Chlorophenoxy)benzo[d]thiazol-2-yl)-8-methoxy-2-thioxo-2,3-dihydro-4H-pyrido[2,3-e][1,3]oxazin-4-one]",–,–,< 2,–
"COc1ccnc2c(=O)n(-c3nc4ccc(C(=O)c5ccccc5)cc4s3)c(=S)oc12 [Example 19, 3-(6-Benzoylbenzo[d]thiazol-2-yl)-8-methoxy-2-thioxo-2,3-dihydro-4H-pyrido[2,3-e][1,3]oxazin-4-one]",–,–,2 to 20,–
"COc1ccnc2c(=O)n(-c3nc4ccc(Cc5ccccc5)cc4s3)c(=S)oc12 [Example 24, 3-(6-Benzylbenzo[d]thiazol-2-yl)-8-methoxy-2-thioxo-2,3-dihydro-4H-pyrido[2,3-e][1,3]oxazin-4-one]",–,–,2 to 20,–
"COc1ccnc2c(=O)n(-c3nc4ccc(Oc5ccc(Cl)cc5)cc4s3)c(=S)oc12 [Example 25, 3-(6-(4-Chlorophenoxy)benzo[d]thiazol-2-yl)-8-methoxy-2-thioxo-2,3-dihydro-4H-pyrido[2,3-e][1,3]oxazin-4-one]",–,–,< 2,–
"COc1ccnc2c(=S)n(-c3nc4ccc(Oc5ccccc5Cl)cc4s3)c(=S)oc12 [Example 26, 3-(6-(2-Chlorophenoxy)benzo[d]thiazol-2-yl)-8-methoxy-2H-pyrido[2,3-e][1,3]oxazine-2,4(3H)-dithione]",–,–,< 2,–
"COc1ccccc1Oc1ccc2nc(-n3c(=S)oc4c(OC)ccnc4c3=O)sc2c1 [Example 30, 8-methoxy-3-(6-(2-methoxyphenoxy)benzo[d]thiazol-2-yl)-2-thioxo-2,3-dihydro-4H-pyrido[2,3-e][1,3]oxazin-4-one]",–,–,< 2,–
"COc1ccnc2c(=O)n(-c3nc4ccc(N(C)c5ccccc5Cl)cc4s3)c(=S)oc12 [Example 31, 3-(6-((2-chlorophenyl)(methyl)amino)benzo[d]thiazol-2-yl)-8-methoxy-2-thioxo-2,3-dihydro-4H-pyrido[2,3-e][1,3]oxazin-4-one]",–,–,< 2,–
"COc1ccnc2c(=O)n(-c3nc4ccc(N(C)c5ccc(Cl)cc5)cc4s3)c(=S)oc12 [Example 32, 3-(6-((4-chlorophenyl)(methyl)amino)benzo[d]thiazol-2-yl)-8-methoxy-2-thioxo-2,3-dihydro-4H-pyrido[2,3-e][1,3]oxazin-4-one]",–,–,< 2,–
"COc1ccnc2c(=O)n(-c3nc4ccc(N(C)c5cncc(Cl)c5)cc4s3)c(=S)oc12 [Example 33, 3-(6-((5-chloropyridin-3-yl)(methyl)amino)benzo[d]thiazol-2-yl)-8-methoxy-2-thioxo-2,3-dihydro-4H-pyrido[2,3-e][1,3]oxazin-4-one]",–,–,2 to 20,–
"COc1ccnc2c(=O)n(-c3nc4ccc(Sc5ccccc5Cl)cc4s3)c(=S)oc12 [Example 34, 3-(6-((2-chlorophenyl)thio)benzo[d]thiazol-2-yl)-8-methoxy-2-thioxo-2,3-dihydro-4H-pyrido[2,3-e][1,3]oxazin-4-one]",–,–,< 2,–
"COCCOc1ccccc1Oc1ccc2nc(-n3c(=S)oc4c(OC)ccnc4c3=O)sc2c1 [Example 37, 8-methoxy-3-(6-(2-(2-methoxyethoxy)phenoxy)benzo[d]thiazol-2-yl)-2-thioxo-2,3-dihydro-4H-pyrido[2,3-e][1,3]oxazin-4-one]",–,–,2 to 20,–
"COc1ccnc2c(=O)n(-c3nc4ccc(OCC(C)C)cc4s3)c(=S)oc12 [Example 43, 3-(6-isobutoxybenzo[d]thiazol-2-yl)-8-methoxy-2-thioxo-2,3-dihydro-4H-pyrido[2,3-e][1,3]oxazin-4-one]",–,–,< 2,–
"COc1ccnc2c(=O)n(-c3nc4ccc(Oc5ccccc5OCC5CC5)cc4s3)c(=S)oc12 [Example 44, 3-(6-(2-(cyclopropylmethoxy)phenoxy)benzo[d]thiazol-2-yl)-8-methoxy-2-thioxo-2,3-dihydro-4H-pyrido[2,3-e][1,3]oxazin-4-one]",–,–,2 to 20,–
"COc1ccccc1Sc1ccc2nc(-n3c(=S)oc4c(OC)ccnc4c3=O)sc2c1 [Example 45, 8-methoxy-3-(6-((2-methoxyphenyl)thio)benzo[d]thiazol-2-yl)-2-thioxo-2,3-dihydro-4H-pyrido[2,3-e][1,3] oxazin-4-one]",–,–,2 to 20,–
"COc1ccnc2c(=O)n(-c3nc4ccc(Oc5ccc(C(F)(F)F)cc5)cc4s3)c(=S)oc12 [Example 46, 8-methoxy-2-thioxo-3-(6-(4-(trifluoromethyl)phenoxy)benzo[d]thiazol-2-yl)-2,3-dihydro-4H-pyrido[2,3-e][1,3]oxazin-4-one]",–,–,< 2,–
